Assay results as given in PMC13095444, “Discovery of RGS2-FBXO44 interaction inhibitors using a cell-based NanoBit assay” (Molecular Pharmacology, 2025).

Columns and labels:
[1] = biological target: T1, RGS4 (Homo sapiens, UniProt P49798); experiment: Cellular thermal shift assay (CETSA), RGS4-HA; assay type: binding; conditions: 100 μM overnight (16–18 hours); gradient 40–60 °C; vs DMSO
T1 construct: expressed in transfected cells; host or cells: HEK-293T, transient transfection
Method: (§1) The cells in 100 mm dishes were harvested by trypsination in reduced serum media and transferred to 15 mL conical tubes. The cells were centrifuged at 300 × g for 3 minutes. Media was removed, and the cell pellet was washed with 10 mL of PBS. The cells were then resuspended in 500 μL of PBS and aliquoted into polymerase chain reaction (PCR) tubes. The cells were then heated in a PCR gradient (40–60 °C) for 3 minutes and then transferred to a 25 °C PCR block for 3 minutes. Following this, cells were immediately flash-frozen using liquid nitrogen. The cells were freeze-thawed 3 times to lyse the cells and then spun down at 20,000 × g for 20 minutes. The supernatant was then added to sample buffer and heated for 5 minutes at 95 °C before SDS-PAGE and western blot analysis.
(§2) We next assessed whether the action of compound 10 to inhibit the RGS2-FBXO44 interaction is through direct binding to either protein. […] The cells were lysed and analyzed by western blot to determine melting temperatures (Tm). […] We also assessed the effect of compound 10 on the Tm for RGS4, which is closely related to RGS2 and also subject to proteasomal degradation, however, independent of FBXO44 ([Lee et al, 2005]; [Sjögren et al, 2015]).

[2] = biological target: T2, RGS2-FBXO44 interaction (Homo sapiens, UniProt P41220); experiment: RGS2-FBXO44 NanoBit assay (HEK-293T RGS2-SmBiT/LgBiT-FBXO44 stable clone #6); assay type: cell-based
T2 construct: expressed in transfected cells
T2 sequence (P41220 1-211): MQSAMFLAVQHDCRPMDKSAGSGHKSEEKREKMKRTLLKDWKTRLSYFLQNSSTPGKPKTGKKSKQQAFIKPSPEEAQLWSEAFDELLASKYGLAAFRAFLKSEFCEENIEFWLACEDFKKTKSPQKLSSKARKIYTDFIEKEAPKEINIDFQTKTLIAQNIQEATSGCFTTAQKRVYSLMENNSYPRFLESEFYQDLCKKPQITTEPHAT
Method: Nano-Glo Live Cell Substrate (LCS) was diluted 1:50 in HBSS to form a 2× stock, and then, 15 μL was added to each well. Plates were shaken on an orbital shaker at 500 rpm for 5 minutes protected from light and then spun down at 1000 rpm for 30 seconds. Plates were incubated at room temperature for 20 minutes, and then, luminescence was detected on a Synergy Neo2 multimode plate reader.
(§3) HEK-293T-RGS2-FBXO44 NanoBit cells were treated for 16–18 hours with compound at 100 μM. This relatively high concentration was chosen because of the challenging nature of our assay (intracellular PPI inhibition). Parental HEK-293T cells were used as a negative control. […] Based on these criteria, 97 compounds were identified as hits from our primary screen (6.1% initial hit rate). To confirm hits, the same assay was repeated in triplicate, which delivered 34 compounds that reached the threshold for inhibition in at least 2 replicates with <25% cell toxicity (Fig. 2C; Supplemental Table 1), thus rendering a final hit rate of 2.1%.
Fresh powders of 20 compounds were purchased and reassayed for their ability to inhibit the RGS2-FBXO44 NanoBit signal, using the same assay paradigm as in the primary screen (Fig. 3; Table 1). […] Nevertheless, all compounds were confirmed to inhibit the RGS2-FBXO44 NanoBit signal at this high concentration.
We next assessed the concentration-dependent effect of our 20 hits. Compounds were assayed at concentrations ranging from 500 to 0.01 μM. NanoBit luminescence (relative luminescence units) was normalized to viability (RFU) and presented as a percentage of untreated cells.

[3] = tested on: HEK-293T-RGS2-FBXO44 NanoBit cells; experiment: Cell viability assay (GF-AFC fluorescence) multiplexed with NanoBit; assay type: cell-based, Human; conditions: 100 μM, 16–18 hours, fresh powder
Method: The cells were plated in DMEM without phenol red (Gibco, #21063), 0.1% BSA in a white, tissue culture-treated 384-well plate (Perkin Elmer) at 15,000 cells/well, unless indicated otherwise, and allowed to attach. The plate was centrifuged at 212 × g for 30 seconds to aid in even cell adherence. Compound treatments were initiated 4–5 hours after plating. Following indicated treatment times, media was removed from the plate using BioTek ELx405 plate washer. Additionally, 10 μL of Hank’s Balanced Salt solution (HBSS) with 0.1% BSA was added to each well, followed by 5 μL of glycyl-phenylalanyl-aminofluorocoumarin (GF-AFC; MP Biomedicals) diluted 1:1000 in 100 mM HEPES. Plates were then centrifuged at 212 × g for 30 seconds and then incubated at 37 °C for 30 minutes. Fluorescence was detected on a Synergy Neo2 multimode plate reader (BioTek/Agilent).
Our primary assay using the HEK-293T RGS2-FBXO44 NanoBit cell line was extensively optimized to ensure maximum quality for screening. Coupling a fluorescent cell viability assay with our screen would allow us to rule out cytotoxic compounds while also hopefully reducing outliers from pipetting errors while plating cells. Thus, we multiplexed our NanoBit assay with cell viability using a cell-permeable fluorogenic protease substrate (glycyl-phenylalanyl-aminofluorocoumarin; GF-AFC; [Niles et al, 2007]), which can be combined with a luminescent readout without interfering with the luciferase signal. We previously utilized a similar multiplexing strategy in several screens ([Sjögren et al, 2012]; [Raveh et al, 2014]; [Sjögren et al, 2015]). We assessed and optimized treatment conditions (time, temperature, and reagent volume), cell density, buffer composition, and DMSO tolerance. In addition to the supplied proprietary LCS buffer (Promega), we also tested DMEM, 0.1% BSA, PBS, and HBSS (Supplemental Fig. 1A–C). […] The luminescent signal was stable up to 45 minutes after reagent addition, and we chose to run subsequent assays using 20 minutes of incubation time (Supplemental Fig. 1E). We also observed no effect on either viability or luminescence signal at DMSO concentrations <1% (Data not shown).
as §3

[4] = biological target: T3, RGS2 (Homo sapiens, UniProt P41220); experiment: Cellular thermal shift assay (CETSA), RGS2-HA; assay type: binding; conditions: 100 μM overnight (16–18 hours); gradient 40–60 °C; vs DMSO
T3 construct: Because both full-length RGS2 and FBXO44 are extremely difficult to express as recombinant proteins, we opted for a cell-based method; expressed in transfected cells; host or cells: HEK-293T, transient transfection
T3 sequence (P41220 1-211): T2 sequence (P41220 1-211)
Method: as §1, §2

T1 sequence (P49798 whole entry, species assumed): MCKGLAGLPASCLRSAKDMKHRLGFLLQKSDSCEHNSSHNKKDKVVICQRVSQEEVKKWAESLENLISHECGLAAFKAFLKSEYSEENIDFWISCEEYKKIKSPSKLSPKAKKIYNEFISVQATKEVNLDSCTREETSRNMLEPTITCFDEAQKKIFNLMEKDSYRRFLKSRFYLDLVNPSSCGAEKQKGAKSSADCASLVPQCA

- Effect on the Tm for RGS4 [1]: no significant effect
- Increase in the Tm for RGS2 [4]: 2.4 °C
SMILES: CCC1CCCCN1S(=O)(=O)c1cc(Br)ccc1OC (centres unmarked) [Compound 10]
- % Inhibition @ 100 μM of RGS2-FBXO44 NanoBit signal ([2]; 100 μM, 16–18 hours, fresh powder, luminescence normalized to viability, vs nontreated cells): 71.7∗∗∗∗ %
- IC50 ([2]; concentrations 500 to 0.01 μM, RLU normalized to viability (RFU), read-out: IC50 (μM), inhibition of RGS2-FBXO44 NanoBit signal): 19.6 µM
- Viability (% of Control) [3]: 69.3∗∗∗∗ % of Control
